Measurements published in US20220331318A1, “USE OF AN MDM2 INHIBITOR FOR THE TREATMENT OF MYELOFIBROSIS” (Novartis AG, priority 2019, published 2022).

Legend:
[1] = Preliminary PK analysis, Phase I/II study of ruxolitinib with siremadlin in myelofibrosis patients; assay type: in vivo, human; details: for Exposure compared with historical single-agent data: combination of ruxolitinib and siremadlin 20 mg QD
Excerpt: (§1) A Randomized, Open-Label, Phase I/II Open Platform Study Evaluating Safety and Efficacy of Novel Ruxolitinib Combination in Myelofibrosis Patients
(§2) The purpose of this study is to investigate the safety, pharmacokinetics and preliminary efficacy of combination treatment of ruxolitinib with siremadlin in MF subjects. The study consists of three parts:
Dose reductions/interruptions were not taken into consideration for this preliminary PK analysis. Nominal times were used.
This study was not specifically designed to investigate the potential for PK drug interactions, however comparative assessment of historical data has been done. A PK DDI between ruxolitinib and siremadlin is unlikely or predicted to be low, based on PBPK analysis.

[2] = system: broad panel of 26 kinases; details: tested at 200 nM; cited from earlier work
[3] = system: other major CYP enzymes or transporters; details: cited from earlier work
JAK3 = JAK3 (Homo sapiens, UniProt P52333); details: at clinically relevant concentrations; cited from earlier work
JAK3, sequence (P52333 whole entry): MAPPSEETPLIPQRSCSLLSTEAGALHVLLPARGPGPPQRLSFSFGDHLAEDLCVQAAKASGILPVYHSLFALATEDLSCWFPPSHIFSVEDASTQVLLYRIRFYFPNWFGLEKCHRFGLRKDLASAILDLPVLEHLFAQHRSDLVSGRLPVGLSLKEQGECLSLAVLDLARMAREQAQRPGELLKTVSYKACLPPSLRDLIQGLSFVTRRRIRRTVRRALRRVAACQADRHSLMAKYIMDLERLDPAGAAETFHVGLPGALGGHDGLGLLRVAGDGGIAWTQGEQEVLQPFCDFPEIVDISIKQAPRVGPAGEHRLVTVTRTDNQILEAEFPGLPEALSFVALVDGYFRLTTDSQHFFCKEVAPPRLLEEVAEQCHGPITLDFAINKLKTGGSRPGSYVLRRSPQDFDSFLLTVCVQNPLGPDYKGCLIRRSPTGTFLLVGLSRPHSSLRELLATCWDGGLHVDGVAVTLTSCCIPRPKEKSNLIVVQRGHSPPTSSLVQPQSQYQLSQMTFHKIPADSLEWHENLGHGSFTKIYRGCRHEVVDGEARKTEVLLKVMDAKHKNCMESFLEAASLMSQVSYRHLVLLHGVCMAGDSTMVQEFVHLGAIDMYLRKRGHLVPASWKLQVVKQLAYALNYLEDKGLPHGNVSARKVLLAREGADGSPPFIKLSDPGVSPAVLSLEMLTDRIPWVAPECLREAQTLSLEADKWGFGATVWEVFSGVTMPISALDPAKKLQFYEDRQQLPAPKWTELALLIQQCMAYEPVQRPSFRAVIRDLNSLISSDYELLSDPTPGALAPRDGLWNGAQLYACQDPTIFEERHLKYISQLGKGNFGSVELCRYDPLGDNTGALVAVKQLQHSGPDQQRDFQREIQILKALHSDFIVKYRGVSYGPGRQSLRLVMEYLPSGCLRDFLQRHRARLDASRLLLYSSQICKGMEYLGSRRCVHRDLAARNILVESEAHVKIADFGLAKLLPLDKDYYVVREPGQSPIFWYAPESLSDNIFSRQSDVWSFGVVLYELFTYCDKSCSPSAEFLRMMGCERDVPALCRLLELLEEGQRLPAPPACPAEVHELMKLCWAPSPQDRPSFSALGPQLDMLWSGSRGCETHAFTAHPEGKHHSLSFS

CYP3A4 = CYP3A4 (Homo sapiens, UniProt P08684); assay: Metabolism by CYP enzymes; assay type: in vitro ADME; details: siremadlin
CYP3A4, sequence (P08684 whole entry): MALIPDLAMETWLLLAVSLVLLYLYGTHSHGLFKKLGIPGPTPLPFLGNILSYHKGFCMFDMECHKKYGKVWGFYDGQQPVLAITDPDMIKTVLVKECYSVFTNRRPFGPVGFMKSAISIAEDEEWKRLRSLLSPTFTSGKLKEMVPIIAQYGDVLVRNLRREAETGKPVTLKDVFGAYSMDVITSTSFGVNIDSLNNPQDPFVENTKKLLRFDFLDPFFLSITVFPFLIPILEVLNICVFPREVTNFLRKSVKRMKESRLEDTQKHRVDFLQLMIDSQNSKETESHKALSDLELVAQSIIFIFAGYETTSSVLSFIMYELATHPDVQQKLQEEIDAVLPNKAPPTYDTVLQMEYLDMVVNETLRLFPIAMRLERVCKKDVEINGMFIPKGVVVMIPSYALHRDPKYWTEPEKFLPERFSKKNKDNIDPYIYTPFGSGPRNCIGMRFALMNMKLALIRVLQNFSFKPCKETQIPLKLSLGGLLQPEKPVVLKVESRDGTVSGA

P-gp = P-gp (Homo sapiens, UniProt P08183); assay: P-gp substrate assessment in vitro; assay type: in vitro ADME
P-gp, sequence (P08183 whole entry): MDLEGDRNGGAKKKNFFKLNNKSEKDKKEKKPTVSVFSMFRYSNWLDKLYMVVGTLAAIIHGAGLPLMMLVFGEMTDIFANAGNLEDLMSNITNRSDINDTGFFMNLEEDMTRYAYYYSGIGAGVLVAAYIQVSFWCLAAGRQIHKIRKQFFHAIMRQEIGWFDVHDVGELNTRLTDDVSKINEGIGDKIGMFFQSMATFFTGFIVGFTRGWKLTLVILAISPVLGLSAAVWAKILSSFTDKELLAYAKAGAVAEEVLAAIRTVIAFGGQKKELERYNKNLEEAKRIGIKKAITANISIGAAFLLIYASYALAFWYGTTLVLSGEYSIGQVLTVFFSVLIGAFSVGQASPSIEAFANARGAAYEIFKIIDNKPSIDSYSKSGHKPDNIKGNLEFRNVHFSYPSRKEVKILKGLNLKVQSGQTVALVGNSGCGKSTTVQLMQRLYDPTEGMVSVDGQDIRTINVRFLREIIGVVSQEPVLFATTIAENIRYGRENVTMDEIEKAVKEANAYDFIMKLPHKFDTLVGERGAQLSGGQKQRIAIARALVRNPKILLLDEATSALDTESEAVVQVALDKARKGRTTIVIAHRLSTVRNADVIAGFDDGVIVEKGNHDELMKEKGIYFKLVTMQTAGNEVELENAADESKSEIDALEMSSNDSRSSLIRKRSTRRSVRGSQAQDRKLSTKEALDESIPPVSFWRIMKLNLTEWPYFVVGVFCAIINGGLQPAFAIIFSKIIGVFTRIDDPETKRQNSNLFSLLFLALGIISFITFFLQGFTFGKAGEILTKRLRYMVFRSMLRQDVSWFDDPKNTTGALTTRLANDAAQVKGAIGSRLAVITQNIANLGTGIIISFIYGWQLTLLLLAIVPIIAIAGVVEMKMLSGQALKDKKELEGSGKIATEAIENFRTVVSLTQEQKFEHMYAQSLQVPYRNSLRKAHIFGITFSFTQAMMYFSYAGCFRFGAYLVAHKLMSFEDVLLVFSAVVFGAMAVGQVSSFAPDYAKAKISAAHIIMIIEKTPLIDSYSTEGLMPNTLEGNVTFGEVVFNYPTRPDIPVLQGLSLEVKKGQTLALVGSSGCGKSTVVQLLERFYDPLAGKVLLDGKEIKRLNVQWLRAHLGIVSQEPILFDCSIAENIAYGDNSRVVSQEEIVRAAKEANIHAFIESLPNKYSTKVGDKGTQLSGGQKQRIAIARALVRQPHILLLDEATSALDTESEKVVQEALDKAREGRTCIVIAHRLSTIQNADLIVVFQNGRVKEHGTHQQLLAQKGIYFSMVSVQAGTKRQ

BCRP = molecular target: T1, BCRP (Homo sapiens, UniProt Q9UNQ0); assay: BCRP substrate assessment in vitro; assay type: in vitro ADME
T1 sequence (Q9UNQ0 1-655): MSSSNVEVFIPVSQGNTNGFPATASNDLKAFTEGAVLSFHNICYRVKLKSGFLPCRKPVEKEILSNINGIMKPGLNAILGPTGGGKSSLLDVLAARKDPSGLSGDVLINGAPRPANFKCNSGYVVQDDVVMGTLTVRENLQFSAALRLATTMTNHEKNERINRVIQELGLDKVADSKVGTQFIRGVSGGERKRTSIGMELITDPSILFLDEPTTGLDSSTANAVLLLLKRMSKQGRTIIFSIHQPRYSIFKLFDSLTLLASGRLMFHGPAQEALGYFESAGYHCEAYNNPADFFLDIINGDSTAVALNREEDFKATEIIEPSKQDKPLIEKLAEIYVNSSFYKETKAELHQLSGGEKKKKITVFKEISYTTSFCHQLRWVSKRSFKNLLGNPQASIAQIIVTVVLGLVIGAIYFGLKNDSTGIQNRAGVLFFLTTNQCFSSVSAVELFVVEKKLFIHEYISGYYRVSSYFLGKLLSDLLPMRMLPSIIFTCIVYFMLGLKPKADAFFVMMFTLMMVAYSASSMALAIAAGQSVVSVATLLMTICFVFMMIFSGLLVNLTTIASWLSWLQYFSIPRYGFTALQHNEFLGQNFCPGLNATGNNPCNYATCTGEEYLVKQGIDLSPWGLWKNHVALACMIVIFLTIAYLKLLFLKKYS

CYP3A4/5 [4] = assay: CYP3A4/5 inhibition in vitro; assay type: in vitro ADME
CYP3A4/5 [5] = assay: CYP3A4/5 induction in vitro; assay type: in vitro ADME; details: net effect anticipated rather as an inhibitor than an inducer
AML subjects = assay: Phase I study HDM201X2101, single-agent siremadlin in solid tumors or hematologic malignancies (R/R AML); assay type: in vivo, human
Excerpt: In this study, the selection of the siremadlin dose and regimen is based on the currently available preclinical and clinical safety, efficacy, PK and PK/PD modeling information from the phase I study HDM201X2101, a dose escalation and expansion study of single-agent siremadlin in patients with solid tumors or hematologic malignancies (R/R AML). At the time of data cut-off (15 Jan. 2018), 199 subjects have been treated applying various dosing regimens: 115 subjects with solid and 84 patients with hematological tumors. Safety and efficacy data from this trial in AML subjects was used to determine a recommended Phase 2 dose regimen of 45 mg once a day (QD) from day 1 to day 7 of a 28-day cycle (regimen 2C) which is disclosed in WO/2018/178925 (incorporated herewith by reference), At this dose regimen, Complete Response/Complete Response with incomplete blood count recovery (CR/CRi) were respectively 2/4 subjects out of 24 (25%).

myelofibrosis patients = assay: Safety (DLTs, SAEs), cohort 1 of Phase I/II study of siremadlin in combination with ruxolitinib in myelofibrosis patients; assay type: in vivo, human; details: 7 patients, cohort 1, 20 mg Siremadlin in combination with Ruxolitinib
Excerpt: as §1, §2
Incidence and severity of dose limiting toxicity (DLTs) within the first 2 treatment cycles in Part 1 of the study
1 patient potentially not evaluable due to Siremadlin interruption within first 2 cycles of treatment. PK DDI between ruxolitinib and Siremadlin is unlikely or predicted to be low, based on PBPK analysis. As per statistical model the dose of Siremadlin can be increased to 30 mg or 40 mg D1-D5 in the next cohort.

[6] = system: solid and hematological tumors; details: preclinical and clinical PK/PD modeling (Guerreiro et al 2018, Meille et al 2017); cited from earlier work
[7] = AML, 45 mg QD day 1 to day 7 of a 28-day cycle (regimen 2C)

Row | metabolizing enzyme (CYP3A4) | P-gp substrate (P-gp) | BCRP substrate (BCRP) | induction of CYP3A4/5 (CYP3A4/5 [5]) | SMILES | Exposure compared with historical single-agent data ([1]; MF patients) | accumulation upon repeated dosing ([1]; MF patients, ruxolitinib 10, 15 or 20 mg BID with siremadlin) | half-life ([1]; human, in vivo, oral, 20 mg) [h] | inhibition of a broad panel of 26 kinases [2] [%] | capacity to inhibit other major CYP enzymes or transporters [3] | inhibition of JAK3 (JAK3) | inhibition of CYP3A4/5 (CYP3A4/5 [4]) | Complete Response (CR) (AML subjects; [7]) | Complete Response with incomplete blood count recovery (CRi) (AML subjects; [7]) | CR/CRi rate (AML subjects; AML, 45 mg QD day 1 to day 7 of a 28-day cycle (regimen 2C), 24 subjects) [%] | dose-limiting toxicity (DLT) (AML subjects; hematological tumor patients, regimen 2C) | severity of adverse events (AML subjects; hematological tumor patients, regimen 2C, cytopenias most commonly observed) | most frequently reported adverse drug reactions in clinic (AML subjects; single agent) | DLTs (myelofibrosis patients) | on treatment SAEs (myelofibrosis patients) | anti-tumor activity on reducing application from 7 to 5 consecutive days per 28-day cycle [6]
1 |  |  |  |  | N#CC[C@H](C1CCCC1)n1cc(-c2ncnc3[nH]ccc23)cn1 [ruxolitinib, (R)-3-(4-(7H-pyrrolo[2,3-d]pyrimidin-4-yl)-1H-pyrazol-1-yl)-3-cyclopentylpropanenitrile] | within the exposure range of values observed previously | little accumulation | 3 to 4 | < 30 | little or no capacity to inhibit | does not inhibit |  |  |  |  |  |  |  |  |  | 
2 | predominantly metabolized by CYP3A4 | substrate | substrate | inducer | COc1ncc(-c2nc3c(n2C(C)C)[C@H](c2ccc(Cl)cc2)N(c2cc(Cl)cn(C)c2=O)C3=O)c(OC)n1 [siremadlin, (S)-5-(5-Chloro-1-methyl-2-oxo-1,2-dihydro-pyridin-3-yl)-6-(4-chloro-phenyl)-2-(2,4-dimethoxy-pyrimidin-5-yl)-1-isopropyl-5,6-dihydro-1H-pyrrolo[3,4-d]imidazol-4-one] | comparable to exposures observed previously |  |  |  |  |  | time-dependent inhibitor and a reversible inhibitor | 2 subjects out of 24 | 4 subjects out of 24 | 25 | tumor lysis syndrome (TLS) | mild to moderate in severity, reversible and manageable | hematological toxicities including thrombocytopenia, neutropenia and anemia | no DLTs | no on treatment SAEs | maintains equivalent anti-tumor activity
